Test results from patent publication US10413532B2, “Pharmaceutical compositions containing a PDE4 inhibitor and a PI3 delta or dual PI3 delta-gamma kinase inhibitor” (Rhizen Pharmaceuticals SA, priority 2012, dated 2019).
Like-named read-outs stand apart in the source and are kept apart here.

Key:
TNFα [1] = experiment: LPS induced TNFα in human whole blood (HWB); format: cell-based; details: 100 nM alone
Experimental: Freshly collected HWB was diluted with media and incubated with the desired concentration of inhibitor for 15 min. LPS (1 μg/ml) was added and then incubated for 24 hours. The supernatant was collected and TNFα estimated using an eBioscience TNFα ELISA kit.
Freshly collected HWB was diluted with media and incubated with the desired concentration of inhibitor for 15 minutes. LPS (1 μg/ml) was added and then incubated for 24 hours. The supernatant was collected and TNFα estimated using an eBioscience TNFα ELISA kit.

neutrophil infiltration = experiment: Lipopolysaccharide induced pulmonary neutrophilia in female Wistar rats; format: in vivo
Experimental: After the quarantine period, fasted animals were randomized and divided into groups depending on their body weights. Test compound was prepared as a suspension in a vehicle consisting of 0.5% methylcellulose in which Tween 80 was used as a suspending agent. Compounds or vehicle were administered by oral gavage in a volume of 10 mL/kg. Animals were anaesthetized with ketamine and LPS solution was administered intratracheally 30 minutes after compound administration at a dose of 1 mg/kg. Six hours after LPS instillation, animals were exsanguinated under anaesthesia, and the trachea was cannulated, and lungs were lavaged with 5-ml aliquots of heparinised PBS (1 unit/ml) four times through the tracheal cannula (total volume 20 ml). Bronchioalveolar (BAL) fluid was stored at 2-8° C. until assayed for total cell and differential leukocyte count. BAL fluid was centrifuged (500×g for 10 min) and the resulting cell pellet was resuspended in 0.5 ml of heparinised saline. The total numbers of white blood cells were determined in BAL fluid or blood using a cell counter and were adjusted to 1×10^6 cell/ml. Differential cell count was calculated manually. One hundred microliters of the cell suspension was centrifuged using cytospin 3 to prepare a cell smear. The cell smear was stained with a blood staining solution for differentiation and slides were microscopically observed to identify eosinophils according to their morphological characteristics. The number of each cell type among 300 white blood cells in the cell smear was determined and expressed as a percentage of total cells. The number of eosinophil in BALF was calculated.
The procedure for LPS induced pulmonary neutrophilia in female Wistar rats as described in Example 1 was performed with compound A1 and roflumilast.

[2] = tested on: macrophage and neutrophil infiltration; experiment: Acute cigarette smoke induced cell infiltration in male Balb/c mice; format: in vivo; details: acute CS; for ED50: oral
Experimental: Animals were acclimatized for seven days prior to the start of the experiment. Animals were randomly distributed to various groups based on their body weights. On day 1, mice were administered by test compound or vehicle by the oral route and after 30 mins test compound administration animals were placed in a whole body exposure box. The mice were exposed to the mainstream smoke of 6 cigarettes from day 1 to day 4. Exposure to the smoke of each cigarette lasted for 10 min (cigarettes were completely burned in the first two minutes and followed by an air flow with animal ventilator) followed by exposure for the next 20 min with fresh room air. After every second cigarette an additional break of 20 min with exposure to fresh room air was conducted. Control animals were exposed to the room air chamber. From day 1 to day 4 animals were administered test compound by the oral route. On day 5, 24 hours after the last cigarette smoke (CS) exposure. animals were exsanguinated under anaesthesia, and the trachea was cannulated and the lungs were lavaged with 0.5 ml aliquots of heparinised PBS (1 unit/ml) four times through a tracheal cannula (total volume 2 ml). Bronchioalveolar (BAL) collected was stored at 2-8° C. until assayed for total cell and differential leukocyte count. BAL fluid was centrifuged (500×g for 10 min) and the resulting cell pellet was resuspended in 0.5 ml of heparinised saline. The total number of white blood cells was determined in BAL fluid and blood using a blood cell counter and adjusted to 1×10^6 cell/ml. Differential cell count was calculated manually. Forty microliters of the cell suspension was centrifuged using cytospin 3 to prepare a cell smear. The cell smear was stained with a blood staining solution for differentiation and microscopically observed by identifying each cell according to its morphological characteristics. The number of each cell type among 300 white blood cells in the cell smear were determined and expressed as a percentage, and the number of neutrophils and macrophages in each BAL fluid were calculated.
The procedure for acute cigarette smoke induced cell infiltration in male Balb/c mice described in Example 1 was performed with Compound A1 and roflumilast

PI3K Delta = PI3K Delta (Homo sapiens, UniProt O00329); experiment: PI3K Delta enzyme inhibition; format: biochemical
Sequence of PI3K Delta (O00329 whole entry, species assumed): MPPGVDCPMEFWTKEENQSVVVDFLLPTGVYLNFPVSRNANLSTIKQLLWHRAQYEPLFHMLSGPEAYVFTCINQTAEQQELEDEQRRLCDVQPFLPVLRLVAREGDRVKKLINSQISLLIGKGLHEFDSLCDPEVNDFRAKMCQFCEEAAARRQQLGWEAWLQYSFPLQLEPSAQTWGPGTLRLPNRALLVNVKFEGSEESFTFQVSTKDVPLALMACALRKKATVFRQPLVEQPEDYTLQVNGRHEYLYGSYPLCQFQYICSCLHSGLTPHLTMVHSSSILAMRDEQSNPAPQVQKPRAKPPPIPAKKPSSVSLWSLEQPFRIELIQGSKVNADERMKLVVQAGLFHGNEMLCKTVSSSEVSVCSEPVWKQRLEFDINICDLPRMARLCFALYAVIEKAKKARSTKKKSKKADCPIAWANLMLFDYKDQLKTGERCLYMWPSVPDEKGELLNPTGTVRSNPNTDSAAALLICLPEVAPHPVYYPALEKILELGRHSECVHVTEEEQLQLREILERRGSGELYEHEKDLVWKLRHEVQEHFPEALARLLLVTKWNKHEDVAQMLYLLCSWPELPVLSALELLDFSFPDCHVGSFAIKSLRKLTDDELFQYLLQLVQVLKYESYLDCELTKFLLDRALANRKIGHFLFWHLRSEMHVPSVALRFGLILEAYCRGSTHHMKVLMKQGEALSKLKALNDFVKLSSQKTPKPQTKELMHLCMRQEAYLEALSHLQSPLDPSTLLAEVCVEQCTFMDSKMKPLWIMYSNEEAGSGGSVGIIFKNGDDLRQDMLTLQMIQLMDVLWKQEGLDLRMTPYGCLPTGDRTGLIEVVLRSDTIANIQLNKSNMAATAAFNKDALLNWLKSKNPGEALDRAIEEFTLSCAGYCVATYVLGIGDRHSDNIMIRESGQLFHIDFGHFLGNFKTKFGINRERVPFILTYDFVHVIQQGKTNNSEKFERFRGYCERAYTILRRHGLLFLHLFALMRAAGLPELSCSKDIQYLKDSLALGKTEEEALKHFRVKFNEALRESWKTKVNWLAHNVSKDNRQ
Sequence of PI3K Delta (P27986 whole entry partner, species assumed): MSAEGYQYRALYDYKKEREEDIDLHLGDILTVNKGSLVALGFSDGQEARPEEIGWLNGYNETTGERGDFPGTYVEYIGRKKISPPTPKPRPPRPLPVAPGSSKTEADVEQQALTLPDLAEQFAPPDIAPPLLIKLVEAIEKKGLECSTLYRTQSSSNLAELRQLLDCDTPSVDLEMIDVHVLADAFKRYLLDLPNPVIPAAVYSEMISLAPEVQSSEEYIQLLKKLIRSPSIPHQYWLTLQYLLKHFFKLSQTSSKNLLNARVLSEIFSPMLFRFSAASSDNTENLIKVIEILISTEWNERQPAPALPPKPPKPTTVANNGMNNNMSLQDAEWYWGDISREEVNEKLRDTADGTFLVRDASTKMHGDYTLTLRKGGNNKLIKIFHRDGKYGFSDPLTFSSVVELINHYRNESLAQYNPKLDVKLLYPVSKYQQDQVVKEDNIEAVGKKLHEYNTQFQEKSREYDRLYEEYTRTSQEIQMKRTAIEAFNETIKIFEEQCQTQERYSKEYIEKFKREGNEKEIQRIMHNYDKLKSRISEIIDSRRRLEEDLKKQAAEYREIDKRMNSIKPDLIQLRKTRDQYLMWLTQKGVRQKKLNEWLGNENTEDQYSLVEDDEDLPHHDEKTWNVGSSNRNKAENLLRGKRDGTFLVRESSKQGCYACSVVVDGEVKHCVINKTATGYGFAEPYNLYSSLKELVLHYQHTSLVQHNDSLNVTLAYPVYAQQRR

PI3K Gamma = PI3K Gamma (Homo sapiens, UniProt P48736); experiment: PI3K Gamma enzyme inhibition; format: biochemical
Sequence of PI3K Gamma (P48736 whole entry, species assumed): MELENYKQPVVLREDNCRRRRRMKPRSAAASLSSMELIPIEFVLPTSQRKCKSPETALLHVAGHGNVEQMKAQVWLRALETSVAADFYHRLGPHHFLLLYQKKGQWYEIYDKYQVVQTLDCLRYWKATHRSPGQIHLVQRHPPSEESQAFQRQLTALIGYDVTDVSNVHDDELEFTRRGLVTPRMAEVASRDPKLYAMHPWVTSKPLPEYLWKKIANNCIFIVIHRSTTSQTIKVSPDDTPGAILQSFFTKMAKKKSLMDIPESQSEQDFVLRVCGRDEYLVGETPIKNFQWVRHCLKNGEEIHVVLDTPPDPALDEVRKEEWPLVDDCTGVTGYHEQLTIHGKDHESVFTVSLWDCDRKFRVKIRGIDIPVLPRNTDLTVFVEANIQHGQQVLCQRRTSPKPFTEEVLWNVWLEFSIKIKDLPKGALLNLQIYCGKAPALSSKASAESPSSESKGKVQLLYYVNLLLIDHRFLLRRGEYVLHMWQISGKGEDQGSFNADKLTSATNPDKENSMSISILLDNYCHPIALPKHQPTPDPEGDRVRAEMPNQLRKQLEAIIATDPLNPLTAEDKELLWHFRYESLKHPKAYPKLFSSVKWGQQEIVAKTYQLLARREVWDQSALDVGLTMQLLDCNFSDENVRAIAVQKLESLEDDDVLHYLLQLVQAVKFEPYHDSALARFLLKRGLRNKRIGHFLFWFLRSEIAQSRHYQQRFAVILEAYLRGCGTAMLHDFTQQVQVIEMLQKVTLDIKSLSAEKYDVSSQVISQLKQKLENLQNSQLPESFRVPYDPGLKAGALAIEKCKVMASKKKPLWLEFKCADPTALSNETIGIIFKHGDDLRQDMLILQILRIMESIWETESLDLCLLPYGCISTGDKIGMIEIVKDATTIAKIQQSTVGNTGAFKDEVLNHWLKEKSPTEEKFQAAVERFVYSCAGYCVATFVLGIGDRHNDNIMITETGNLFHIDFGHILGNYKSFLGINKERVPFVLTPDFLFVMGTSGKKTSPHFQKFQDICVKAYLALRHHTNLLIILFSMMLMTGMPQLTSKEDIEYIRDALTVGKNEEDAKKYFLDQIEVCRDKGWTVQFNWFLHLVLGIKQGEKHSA

TNFα [3] = experiment: LPS induced TNFα in MH-S (mouse alveolar macrophage) cells; format: cell-based
Experimental: (§1) MH-S represents a mouse alveolar macrophage cell line that secretes copious amounts of TNFα upon induction by LPS. Cells were plated at 150,000 cells per well. 10 nM of Compound A1 (final concentration) was added 15 minutes prior to the addition of roflumilast. LPS (1 μg/ml) was added and then incubated for 4 hours. The supernatant was collected after 20 hours and TNFα was estimated using an ELISA kit.

TNFα [4] = experiment: LPS induced TNFα in THP-1 (human monocyte) cells; format: cell-based; details: compound alone; THP-1 cells, LPS 1 μg/ml
Experimental: as §1, with “THP-1” for “MH-S”, “monocytic” for “mouse alveolar macrophage”, “that has elevated endogenous pAKT levels and” for “that”

IFNγ [5] = experiment: Con A+PMA induced IFNγ in human whole blood (HWB); format: cell-based; details: 10 nM alone
Experimental: (§2) Freshly collected HWB was diluted with media and incubated with the desired concentration of inhibitor for 15 minutes. Cytokine release was induced with the addition of Concanavalin A (25 μg/ml)+Phorbol Myristate Acetate (50 ng/ml). The supernatant was collected after 20 hours and IFNγ was estimated using an ELISA kit.

IFNγ [6] = experiment: Con A+PMA induced IFNγ in PBMC; format: cell-based; details: 10 nM alone
Experimental: as §2, with “PBMC from whole blood were isolated by density gradient using Histopaque” for “Freshly collected HWB was diluted with media”, “Supernatant” for “The supernatant”

IC50 (PI3K Delta): < 40 nM
IC50 (PI3K Gamma): < 40 nM
SMILES: CC(C)Oc1ccc(-c2nn(C(C)c3oc4cccc(F)c4c(=O)c3-c3cccc(F)c3)c3ncnc(N)c23)cc1F (single isomer, unassigned; (+)) [Compound A1, (+)-2-(1-(4-amino-3-(3-fluoro-4-isopropoxyphenyl)-1H-pyrazolo[3,4-d]pyrimidin-1-yl)ethyl)-5-fluoro-3-(3-fluorophenyl)-4H-chromen-4-one]
effect on TNFα secretion (TNFα [1]): did not affect TNFα secretion
percent inhibition of neutrophil infiltration (neutrophil infiltration; 0.1 mg/kg oral, rat BAL fluid 6 h after LPS): 17.83%
percent inhibition of neutrophil infiltration (neutrophil infiltration; 1 mg/kg oral, dose-response study, rat): 51.76%
percent inhibition of neutrophil infiltration (neutrophil infiltration; 10 mg/kg oral, rat): 70.21%
ED50 (neutrophil infiltration; Neutrophil, oral, rat LPS pulmonary neutrophilia, read-out: 50% inhibition (ED50) dose, neutrophil infiltration): 1.3 mg/kg
inhibition of neutrophil infiltration (neutrophil infiltration; combination study, alone at 1.3 mg/kg, rat): 43.02%
percent inhibition of neutrophil infiltration ([2]; 0.1 mg/kg oral, mouse): 14.76%
percent inhibition of macrophage infiltration ([2]; 0.1 mg/kg oral, mouse BAL): 20.60%
percent inhibition of neutrophil infiltration ([2]; 0.3 mg/kg oral, mouse): 51.31%
percent inhibition of macrophage infiltration ([2]; 0.3 mg/kg oral, dose-response study, mouse): 75.19%
percent inhibition of macrophage infiltration ([2]; 1 mg/kg oral, mouse): 93.11%
percent inhibition of neutrophil infiltration ([2]; 1 mg/kg oral, mouse): 112.83%
ED50 ([2]; Macrophage, mouse, read-out: 50% inhibition (ED50) dose, macrophage infiltration): 0.2 mg/kg
ED50 ([2]; Neutrophil, mouse, read-out: dose of 50% inhibition (ED50) of neutrophil infiltration): 0.26 mg/kg
inhibition of neutrophil infiltration ([2]; combination study, alone at 0.25 mg/kg, mouse): 36.69%
inhibition of macrophage infiltration ([2]; combination study, alone at 0.3 mg/kg, mouse): 31.33%
decrease in TNFα secretion (TNFα [3]; 15 nM alone): ~10%
inhibition of TNFα (TNFα [3]; compound alone, LPS 1 μg/ml): dose-dependently inhibited TNFα
inhibition of TNFα (TNFα [4]): dose-dependently inhibited TNFα
effect on IFNγ secretion (IFNγ [5]): did not affect IFNγ secretion
effect on IFNγ secretion (IFNγ [6]): did not affect IFNγ secretion
